# Values of other authors as cited in patent US20070088012A1, “Method of treating or preventing type-2 diabetes” (priority 2005, published 2007).
smiles,measurement,setting,value
"C[C@]12CC[C@H]3[C@@H](CCC4=CC(=O)CC[C@@]43C)[C@@H]1CC[C@@H]2O [Testosterone, testosterone]",bound to protein in the blood,circulating testosterone,98%
same,share bound weakly to albumin,in men,60%
same,share of the binding to sex hormone binding globulin (SHBG),in men,approximately 40%
same,Metabolic Clearance Rate of Daily Testosterone,men,^aMetabolic Clearance Rate of Daily Testosterone = 600 L/day
same,half-life of testosterone,reported in the literature,10 to 100 min
